Common to all, as to experiment: Bliss excess, mean over the matrix (fraction); higher = more synergy
For assay [1], the system named is 639-V (Bladder Carcinoma). The method, boiled down:
(§1)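 Cell lines in DMEM/F12 or RPMI with 10% FBS were plated in 1536-well plates, held 24 hours at 37°C, 5% CO2, then given two-drug dose matrices for 72 hours (DMSO typically 0.2%). Viability was read by CellTiter-Glo 2.0 luminescence and scaled as inhibition from 0 (vehicle wells) to 1 (blank wells). Combination Emax is the second-highest inhibition in the matrix; Bliss excess is observed combination effect minus expected EA + EB − EA·EB, EA and EB being single-agent effects.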

Assay [2] relates to EN (Endometrial Carcinoma). The method, boiled down: as §1
In assay [3] the test system is HCC-15 (Squamous Cell Lung Carcinoma). In outline:
as §1

Assay [4] concerns KYSE-410 (Esophageal Squamous Cell Carcinoma). In outline: as §1
For assay [5], the system named is LB771-HNC (Head and Neck Carcinoma). In outline:
as §1

Assay [6] deals with LU-139 (Small Cell Lung Carcinoma). In outline:
as §1

Assay [7] has as its system LoVo (Colorectal Carcinoma). The method, boiled down:
as §1

The test system of assay [8] is MHH-PREB-1 (B-Cell Non-Hodgkin's Lymphoma). The method, boiled down:
as §1

Another assay has as its system NB14 (Neuroblastoma). In outline: as §1
A further assay concerns NCI-H2795 (Mesothelioma). The method, boiled down: as §1
A further assay deals with NCI-H28 (Mesothelioma). In outline: as §1
Assay [9] relates to NCI-H747 (Colorectal Carcinoma). In outline: as §1
Assay [10] deals with OC-314 (Ovarian Carcinoma). The method, boiled down: as §1
Assay [11] concerns RKO (Colorectal Carcinoma). The method, boiled down: as §1
The next assay deals with SH-4 (Melanoma). In outline:
as §1

The subject of assay [12] is SW1271 (Small Cell Lung Carcinoma). In outline: as §1
Assay [13] deals with SW626 (Colorectal Carcinoma). The method, boiled down: as §1
Assay [14] has as its system TE-4 (Esophageal Squamous Cell Carcinoma). The method, boiled down: as §1
For assay [15], the system named is UMC-11 (Other Solid Carcinomas). The method, boiled down:
as §1

On to `COc1nnc2ccc(N3CCC(c4ccc(OCCN5CCN(C)C(=O)[C@H]5C)cc4)CC3)nn12` [AZD5153] + CC1(C)CCC(CN2CCN(c3ccc(C(=O)NS(=O)(=O)c4ccc(NCC5CCOCC5)c([N+](=O)[O-])c4)c(Oc4cnc5[nH]ccc5c4)c3)CC2)=C(c2ccc(Cl)cc2)C1 [Venetoclax] (first compound max 1 µM, 7x7, partner max 1 µM), for which the Bliss excess in assay [1] is -0.0962; in assay [2] it was -0.0567; in [3], -0.0255; in assay [4] it was -0.0898; in assay [5], -0.0704; in [6] it was 0.0391. Also, the Bliss excess in [7] is -0.0378; in assay [8] it was -0.055; in the assay with NB14 (Neuroblastoma) it was -0.0109; with NCI-H2795 (Mesothelioma) it was -0.041; in the assay with NCI-H28 (Mesothelioma), 0.0174; in assay [9], -0.0522. For the same compound, the Bliss excess is -0.0149 in assay [10]; 0.0122 in [11]; -0.124 in the assay with SH-4 (Melanoma); -0.108 in assay [12]; -0.0676 in [13]; -0.0291 in assay [14]. The Bliss excess in [15] is 0.0234.

On to `Cn1cnc2c(F)c(Nc3ccc(Br)cc3Cl)c(C(=O)NOCCO)cc21` [Selumetinib] + C[C@@H]1COCCN1C2=NC(=NC(=C2)C3(CC3)[S@](=N)(=O)C)C4=C5C=CNC5=NC=C4 [AZD6738] (first compound max 10 µM, 7x7, partner max 10 µM), for which the Bliss excess in [1] is 0.0585; in assay [2], -0.0228; in [3], 0.0787; in assay [4] it was 0.0274; in assay [5], -0.0532; in assay [6], -0.0259. The Bliss excess in assay [7] is -0.0381; in assay [8], -0.0416; in the assay on NB14 (Neuroblastoma) it was -0.0232; in the assay on NCI-H2795 (Mesothelioma) it was -0.0239; in the assay with NCI-H28 (Mesothelioma), -0.0096; in assay [9] it was 0.002. For the same compound, the Bliss excess is -0.0764 in assay [10]; -0.0041 in assay [11]; -0.0145 in the assay with SH-4 (Melanoma); 0.0072 in [12]; 0.0756 in [13]; -0.0063 in assay [14]. Besides, the Bliss excess in [15] was found to be 0.0001.

In the case of `CC(=O)c1c(C)c2cnc(Nc3ccc(N4CCNCC4)cn3)nc2n(C2CCCC2)c1=O` [Palbociclib] + Cc1c2c(nn1C)CSCc1cc(n(C)n1)CSc1cc(c3ccccc3c1)OCCCc1c(C(=O)O)n(C)c3c-2c(Cl)ccc13 [AZD5991] (first compound max 10 µM, 7x7, partner max 1 µM), the Bliss excess is -0.0492 in [1]; -0.0544 in assay [2]; -0.0501 in assay [3]; -0.0657 in [4]; -0.0622 in [5]; 0.0198 in assay [6]. Besides, the Bliss excess in assay [7] was -0.0584; in [8] it was -0.0405; in the assay on NB14 (Neuroblastoma) it was -0.0498; with NCI-H2795 (Mesothelioma), 0.0419; with NCI-H28 (Mesothelioma), -0.0319; in [9], -0.0196. The Bliss excess in assay [10] is -0.023; in assay [11], 0.0342; in the assay on SH-4 (Melanoma), -0.0267; in assay [12] it was -0.0193; in assay [13], -0.0211; in assay [14] it was -0.0598. Further, the Bliss excess in assay [15] is -0.0475.

Regarding `Cc1nc(Nc2ncc(C(=O)Nc3c(C)cccc3Cl)s2)cc(N2CCN(CCO)CC2)n1` [Dasatinib] + CC(=O)Nc1cccc(-n2c(=O)n(C3CC3)c(=O)c3c(Nc4ccc(I)cc4F)n(C)c(=O)c(C)c32)c1 [Trametinib] (first compound max 2 µM, 7x7, partner max 1 µM), the Bliss excess in assay [1] was -0.0398; in [2], -0.0056; in assay [3], 0.193; in [4], -0.0622; in assay [5] it was -0.0363; in assay [6], -0.0243. Also, the Bliss excess in [7] is 0.104; in assay [8], -0.0504; in the assay with NB14 (Neuroblastoma) it was -0.065; in the assay on NCI-H2795 (Mesothelioma) it was -0.0513; in the assay on NCI-H28 (Mesothelioma) it was -0.0021; in [9] it was -0.0238. Moreover, the Bliss excess in assay [10] was 0.0153; in assay [11] it was 0.119; in the assay with SH-4 (Melanoma), -0.0721; in assay [12], 0.119; in [13], 0.0385; in assay [14], -0.12. Further, the Bliss excess in assay [15] was -0.0733.

Regarding `NC1(C(=O)N[C@@H](CCO)c2ccc(Cl)cc2)CCN(c2ncnc3[nH]ccc23)CC1` [Capivasertib] + COc1nnc2ccc(N3CCC(c4ccc(OCCN5CCN(C)C(=O)[C@H]5C)cc4)CC3)nn12 [AZD5153] (first compound max 10 µM, 7x7, partner max 1 µM), the Bliss excess in [1] was 0.0409; in [2] it was 0.0304; in assay [3], 0.009; in [4], 0.0437; in assay [5], 0.0208; in assay [6], -0.0574. Also, the Bliss excess in assay [7] was 0.042; in assay [8], -0.0154; in the assay on NB14 (Neuroblastoma), -0.0216; in the assay on NCI-H2795 (Mesothelioma), -0.0197; with NCI-H28 (Mesothelioma) it was -0.062; in assay [9] it was -0.042. The Bliss excess was -0.0135 in [10]; 0.0048 in [11]; -0.0171 in the assay on SH-4 (Melanoma); 0.0529 in [12]; -0.0156 in assay [13]; 0.0684 in assay [14]. In addition, the Bliss excess in [15] worked out at 0.0063.

As to `Cn1cnc2c(F)c(Nc3ccc(Br)cc3Cl)c(C(=O)NOCCO)cc21` [Selumetinib] + C=CCn1c(=O)c2cnc(Nc3ccc(N4CCN(C)CC4)cc3)nc2n1-c1cccc(C(C)(C)O)n1 [AZD1775] (first compound max 10 µM, partner max 1 µM), the Bliss excess in assay [1] is -0.0207; in assay [2], -0.126; in [3], 0.0018; in [4] it was 0.0543; in assay [5] it was -0.0937; in assay [6], 0.0238. Besides, the Bliss excess in [7] was -0.0105; in [8], -0.0531; in the assay with NB14 (Neuroblastoma), -0.0193; in the assay with NCI-H2795 (Mesothelioma), -0.0298; with NCI-H28 (Mesothelioma), -0.0376; in assay [9], -0.0761. The Bliss excess in [10] is -0.027; in assay [11], -0.0202; with SH-4 (Melanoma), -0.0546; in assay [12], -0.0806; in assay [13], -0.0577; in assay [14], -0.0849. For the same compound, the Bliss excess in assay [15] was 0.0137.

For the compound `COc1nnc2ccc(N3CCC(c4ccc(OCCN5CCN(C)C(=O)[C@H]5C)cc4)CC3)nn12` [AZD5153] + Cc1c2c(nn1C)CSCc1cc(n(C)n1)CSc1cc(c3ccccc3c1)OCCCc1c(C(=O)O)n(C)c3c-2c(Cl)ccc13 [AZD5991] (first compound max 1 µM, 7x7, partner max 1 µM), the Bliss excess in assay [1] is -0.0552; in assay [2], 0.0144; in assay [3], -0.0105; in assay [4] it was 0.0001; in [5] it was 0.0475; in assay [6], -0.0069. Besides, the Bliss excess in assay [7] was -0.0383; in [8] it was -0.0418; with NB14 (Neuroblastoma) it was 0.034; in the assay on NCI-H2795 (Mesothelioma), 0.0103; in the assay on NCI-H28 (Mesothelioma), -0.0976; in [9], -0.0442. Moreover, the Bliss excess is -0.0625 in assay [10]; -0.0293 in assay [11]; -0.0628 in the assay on SH-4 (Melanoma); -0.0242 in assay [12]; -0.0374 in assay [13]; -0.0212 in [14]. Also, in assay [15], the Bliss excess was found to be 0.0518.

(Values after the supplement of paper PMC11061612.)
